Measured values taken from publication PMC12817916, “A small-molecule HSP90 inhibitor, NVP-HSP990, alleviates rotavirus infection” (Journal of Virology, 2025).

Legend:
MA104 cells = assay: Cytotoxicity assay (CCK-8); format: cell-based, Rhesus monkey; conditions: MA104 cells, 24 h, CCK-8; read-out: CC50
Experimental: To evaluate the cytotoxicity of different HSP90 inhibitors in vitro, 10,000 MA104 cells, 30,000 Caco-2 cells, and 80,000 HT-29 cells in 100 µL complete DMEM medium were seeded in 96-well plates and cultured at 37°C and 5% CO2 for 24 h to reach about 100% confluence, and a cell-free control was also set. After removing the initial medium, 100 µL of complete DMEM medium containing the indicated concentrations of drugs was added to each well, and the plates were incubated at 37°C and 5% CO2. Twenty-four hours later, the drug-containing medium was replaced with 100 µL fresh complete DMEM medium plus 10 µL 5 mM CCK-8 reagent (Beyotime, China), and OD450 absorbance of each well was detected 3 h later using a microplate reader (Gene Company Limited, China). Relative cell viability rate = OD450 (drug-treated cells − cell-free control) / OD450 (0 µM drug-treated cells − cell-free control).
The 50% cytotoxic concentration (CC50) values were determined by nonlinear regression (curve fit) analysis in GraphPad Prism 9.0 (GraphPad Software). Dose-response data (drug concentrations as X-axis and normalized cell viability percentages as Y-axis) were fitted to a Dose-response Inhibition model ("[Inhibitor] vs. normalized response-Variable slope"). The curve was constrained to a bottom limit of 0% viability. The CC50 value was automatically calculated as the X-intercept at Y=50%. Model adequacy was validated using goodness-of-fit metrics (R²≥0.95), 95% confidence intervals, and residual distribution analysis. Final CC50 values were derived from three independent biological replicates and reported as mean ± SEM.

[1] = test system: tight junctions (ZO-1, ZO-2, claudin-1) in Caco-2 cells; assay: Tight junction-associated proteins and structure (WB, IFA); format: cell-based, Human; conditions: Wa or SA11 MOI = 3, 100 nM
Experimental: The cells were then washed with PBS, fixed in 4% paraformaldehyde for 20 min, followed by permeabilization in 0.5% Triton X-100 for 10 min and blocking with 5% BSA (Beyotime, China) for 1 h at room temperature. The cells were then incubated with rabbit anti-ZO-1 monoclonal antibody (CST, USA) (1:100) or rabbit anti-RV VP6 polyclonal antibodies (CUSABIO, China) (1:50) for 2 h at room temperature, washed twice with PBS, and incubated with Cy3-conjugated goat anti-rabbit antibodies (Beyotime, China) (1:500) for 1 h at room temperature. In some experiments, the cells were also stained with FITC-conjugated goat anti-RV antibodies (Virostat, USA) (1:100) for 1 h at room temperature and followed by 5 µg/mL 2-(4-amidinophenyl)-6-indolecarbamidine dihydrochloride (DAPI) (Sigma-Aldrich, USA) staining for 10 min. […] Minimal post-processing (image cropping and annotations) was applied through Adobe Illustrator 2019 (Adobe Systems, USA) to ensure readability. […]
MA104, Caco-2, and HT-29 cells were mock-infected with PBS, infected with RV Wa or SA11 strains (MOI = 3), or treated with 1 µM C16-PAF (C16) for 1 h. […] After protein quantification with a BCA kit (Beyotime, China), the protein samples were mixed with 25 µL 5× SDS loading buffer (Beyotime, China), boiled at 100°C for 5 min, chilled on ice, vortexed for seconds, and centrifuged at 12,000 × g for 3 min at room temperature. […]

COc1cccc(-c2cc(F)ccc2[C@H]2Cc3nc(N)nc(C)c3C(=O)N2)n1 [NVP-HSP990]
CC50 (MA104 cells): > 100 µM
structural disruption of tight junctions in RV infection ([1]; 18 h, ZO-1 immunostaining): effectively restored
expression of tight junction-associated proteins ZO-1, ZO-2, and claudin-1 ([1]; 20 h, WB): facilitated the expression
